Source: US6916798B2, “Inhibitors of GSK-3 and uses thereof” (Vertex Pharmaceuticals Incorporated, priority 2001, dated 2005)
Read-outs that look alike come from different tables or passages of the source.

Molecular target: T1, GSK-3β (AA 1-420) (Homo sapiens, UniProt P49841)
T1 construct: GSK-3β (AA 1-420)
Test: Ki determination for the inhibition of GSK-3, standard coupled enzyme system
Assay type: biochemical
Protocol: Final substrate concentrations in the assay were 20 μM ATP (Sigma Chemicals, St Louis, Mo.) and 300 μM peptide (HSSPHQS(PO3H2)EDEEE, American Peptide, Sunnyvale, Calif.). Reactions were carried out at 30° C. and 20 nM GSK-3β. Final concentrations of the components of the coupled enzyme system were 2.5 mM phosphoenolpyruvate, 300 μM NADH, 30 μg/ml pyruvate kinase and 10 μg/ml lactate dehydrogenase.
An assay stock buffer solution was prepared containing all of the reagents listed above with the exception of ATP and the test compound of interest. The assay stock buffer solution (175 μl) was incubated in a 96 well plate with 5 μl of the test compound of interest at final concentrations spanning 0.002 μM to 30 μM at 30 ° C. for 10 min. […] The reaction was initiated by the addition of 20 μl of ATP (final concentration 20 μM). Rates of reaction were obtained using a Molecular Devices Spectramax plate reader (Sunnyvale, Calif.) over 10 min at 30° C. The Ki values were determined from the rate data as a function of inhibitor concentration.

[1] = 20 μM ATP, 300 μM peptide, 20 nM GSK-3β, 30° C., read-out: Ki values for GSK-3

T1 sequence (P49841 whole entry, the tested form may be a part): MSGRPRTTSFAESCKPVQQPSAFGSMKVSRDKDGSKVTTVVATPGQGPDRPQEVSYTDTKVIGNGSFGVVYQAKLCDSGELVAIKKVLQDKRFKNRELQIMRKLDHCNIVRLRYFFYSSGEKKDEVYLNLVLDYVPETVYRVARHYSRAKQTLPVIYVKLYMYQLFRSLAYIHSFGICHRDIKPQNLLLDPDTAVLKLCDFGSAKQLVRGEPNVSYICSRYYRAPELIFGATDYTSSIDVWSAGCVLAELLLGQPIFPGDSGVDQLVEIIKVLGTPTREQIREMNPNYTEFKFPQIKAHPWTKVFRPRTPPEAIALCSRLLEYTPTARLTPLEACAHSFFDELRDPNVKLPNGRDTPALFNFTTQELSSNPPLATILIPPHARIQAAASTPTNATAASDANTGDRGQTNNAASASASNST

Structure (SMILES): COc1ccc(C2=NNC(=O)C2=NNc2cccc(OC)c2)cc1 [Compound 72]
- Ki [1]: < 100 nM

Structure (SMILES): CCn1c2ccccc2c2cc(NN=C3C(=O)NN=C3c3ccc(OC)c(OC)c3)ccc21 [Compound 218]
- Ki [1]: < 100 nM

Structure (SMILES): COc1ccc(C2=NNC(=O)C2=NNc2ccc(OC)c(N3CCN(C)CC3)c2)cc1OC [Compound 125, 5-(3,4-Dimethoxy-phenyl)-4-{[4-methoxy-3-(4-methyl-piperazin-1-yl)-phenyl]-hydrazono}-2,4-dihydro-pyrazol-3-one]
- Ki [1]: < 100 nM

Structure (SMILES): COc1ccc(C2=NNC(=O)/C2=N\Nc2ccc(N(C)C)cc2)cc1 [Compound 51]
- Ki [1]: < 100 nM

Structure (SMILES): COc1ccc(C2=NNC(=O)C2=NNc2ccc(C(F)(F)F)cc2)cc1OC [Compound 64]
- Ki [1]: < 100 nM

Structure (SMILES): COc1cccc(C2=NNC(=O)C2=NNc2ccc(-c3ccc(F)cc3)cc2)c1 [Compound 84]
- Ki [1]: 100 to 1000 nM

Structure (SMILES): O=C1NN=C(c2ccc3c(c2)OCO3)C1=NNc1ccc(Cl)cc1 [Compound 45]
- Ki [1]: < 100 nM

Structure (SMILES): CCOc1cc(N2CCOCC2)c(OCC)cc1NN=C1C(=O)NN=C1c1ccc(OC)c(OC)c1 [Compound 111, 4-[(2,5-Diethoxy-4-morpholin-4-yl-phenyl)-hydrazono]-5-(3,4-dimethoxy-phenyl)-2,4-dihydro-pyrazol-3-one]
- Ki [1]: 100 to 1000 nM

Structure (SMILES): CCn1c2ccccc2c2cc(NN=C3C(=O)NN=C3c3ccc(OC)cc3)ccc21 [Compound 217]
- Ki [1]: < 100 nM

Structure (SMILES): COc1cccc(N/N=C2\C(=O)NN=C2c2cccc(OC)c2)c1 [Compound 74]
- Ki [1]: < 100 nM

Structure (SMILES): COc1cc(C2=NNC(=O)C2=NNc2ccc(OC)c(N3CCN(C)CC3)c2)ccc1OCc1ccccc1 [Compound 126, 5-(4-Benzyloxy-3-methoxy-phenyl)-4-{[4-methoxy-3-(4-methyl-piperazin-1-yl)-phenyl]-hydrazono}-2,4-dihydro-pyrazol-3-one]
- Ki [1]: < 100 nM

Structure (SMILES): O=C1NN=C(c2ccc(N3CCOCC3)cc2)C1=NNc1cccc(-c2ccccc2)c1 [Compound 205]
- Ki [1]: < 100 nM

Structure (SMILES): COc1ccc(C2=NNC(=O)C2=NNc2ccc(C(F)(F)F)cc2)cc1 [Compound 63]
- Ki [1]: < 100 nM

Structure (SMILES): COc1ccc(C2=NNC(=O)C2=NNc2cccc(Oc3ccccc3)c2)cc1OC [Compound 89]
- Ki [1]: < 100 nM

Structure (SMILES): COc1ccc(C2=NNC(=O)C2=NNc2ccc3c(c2)OCO3)cc1 [Compound 213]
- Ki [1]: < 100 nM

Structure (SMILES): COc1cccc(C2=NNC(=O)/C2=N\Nc2cccc(Cl)c2)c1 [Compound 71]
- Ki [1]: < 100 nM

Structure (SMILES): O=C1NN=C(c2cccnc2)/C1=N/Nc1ccccc1Cl [Compound 15]
- Ki [1]: 100 to 1000 nM

Structure (SMILES): O=C1NN=C(c2ccccc2)/C1=N/Nc1ccccc1Cl [Compound 12]
- Ki [1]: 100 to 1000 nM

Structure (SMILES): O=C1NN=C(c2cccnc2)C1=NNc1ccc(Cl)cc1 [Compound 18]
- Ki [1]: < 100 nM

Structure (SMILES): COc1cc(C2=NNC(=O)C2=CNc2cc(C)[nH]n2)cc(OC)c1OC [Compound 227]
- Ki [1]: 100 to 1000 nM

Structure (SMILES): COc1ccc(NN=C2C(=O)NN=C2c2ccccc2F)cc1 [Compound 33]
- Ki [1]: 100 to 1000 nM

Structure (SMILES): O=C1NN=C(c2ccccn2)C1=NNc1ccc(Cl)cc1 [Compound 17]
- Ki [1]: 100 to 1000 nM

Structure (SMILES): O=C1NN=C(c2ccncc2)/C1=N/Nc1ccccc1Cl [Compound 16]
- Ki [1]: 100 to 1000 nM

Structure (SMILES): COc1ccc(NN=C2C(=O)NN=C2c2cc(OC)c(OC)c(OC)c2)cc1N1CCOCC1 [Compound 124, 4-[(4-Methoxy-3-morpholin-4-yl-phenyl)-hydrazono]-5-(3,4,5-trimethoxy-phenyl)-2,4-dihydro-pyrazol-3-one]
- Ki [1]: < 100 nM

Structure (SMILES): COc1ccc(C2=NNC(=O)C2=NNc2ccc(-c3ccc(F)cc3)cc2)cc1 [Compound 82]
- Ki [1]: < 100 nM

Structure (SMILES): O=C1NN=C(c2ccccc2F)C1=NNc1ccc(Cl)cc1 [Compound 27]
- Ki [1]: 100 to 1000 nM

Structure (SMILES): O=C1NN=C(c2ccc(N3CCOCC3)cc2)C1=NNc1ccc2c(c1)C(=O)c1ccccc1-2 [Compound 208]
- Ki [1]: < 100 nM

Structure (SMILES): COc1ccc(C2=NNC(=O)C2=NNc2cccc(C(F)(F)F)c2)cc1OC [Compound 67]
- Ki [1]: < 100 nM

Structure (SMILES): N#Cc1ccc(C2=NNC(=O)C2=NNc2ccc(Cl)cc2)cc1 [Compound 75]
- Ki [1]: < 100 nM

Structure (SMILES): COc1ccc(C2=NNC(=O)C2=NNc2cccc(Oc3ccccc3)c2)cc1 [Compound 88]
- Ki [1]: < 100 nM

Structure (SMILES): COc1ccc(NN=C2C(=O)NN=C2c2ccc(C#N)cc2)cc1 [Compound 76]
- Ki [1]: 100 to 1000 nM

Structure (SMILES): O=C1NN=C(c2ccccc2)/C1=N/Nc1ccc(Cl)cc1 [Compound 25]
- Ki [1]: < 100 nM

Structure (SMILES): COc1ccc(C2=NNC(=O)C2=NNc2ccc(OC)c(-c3cc(OC)c(OC)c(OC)c3)c2)cc1OC [Compound 109, 5-(3,4-Dimethoxy-phenyl)-4-[(6,3′,4′,5′-tetramethoxy-biphenyl-3-yl)-hydrazono]-2,4-dihydro-pyrazol-3-one]
- Ki [1]: < 100 nM

Structure (SMILES): O=C1NN=C(c2ccccn2)/C1=N/Nc1ccccc1Cl [Compound 14]
- Ki [1]: 100 to 1000 nM

Structure (SMILES): COc1ccc(C2=NNC(=O)/C2=N\Nc2cccc(Cl)c2)cc1 [Compound 69]
- Ki [1]: < 100 nM

Structure (SMILES): COc1ccc(Nc2ccc(NC=C3C(=O)NN=C3c3ccc(OC)cc3)cc2)cc1 [Compound 224]
- Ki [1]: 100 to 1000 nM

Structure (SMILES): CC1=NNC(=O)/C1=N\Nc1ccccc1Cl [Compound 8]
- Ki [1]: 100 to 1000 nM

Structure (SMILES): COc1ccc(C2=NNC(=O)C2=NNc2ccc([N+](=O)[O-])cc2)cc1 [Compound 77]
- Ki [1]: < 100 nM

Structure (SMILES): COc1ccc(C2=NNC(=O)C2=NNc2ccc(Br)cc2)cc1OC [Compound 55]
- Ki [1]: < 100 nM

Structure (SMILES): COc1ccc(C2=NNC(=O)C2=NNc2ccc(Br)cc2)cc1 [Compound 54]
- Ki [1]: < 100 nM

Structure (SMILES): COc1cc(OC)c(NN=C2C(=O)NN=C2c2ccc(OC)c(OC)c2)c(OC)c1 [Compound 112, 5-(3,4-Dimethoxy-phenyl)-4-[(2,4,6-trimethoxy-phenyl)-hydrazono]-2,4-dihydro-pyrazol-3-one]
- Ki [1]: 100 to 1000 nM

Structure (SMILES): COc1cccc(C2=NNC(=O)/C2=N\Nc2ccc(C#N)cc2)c1 [Compound 59]
- Ki [1]: < 100 nM

Structure (SMILES): COc1ccc(C2=NNC(=O)C2=NNc2cccc(-c3ccccc3)c2)cc1OC [Compound 204]
- Ki [1]: < 100 nM

Structure (SMILES): COc1cccc(C2=NNC(=O)C2=NNc2cccc(C(F)(F)F)c2)c1 [Compound 68]
- Ki [1]: < 100 nM

Structure (SMILES): CCN(CC)c1ccc(NN=C2C(=O)NN=C2c2cc(OC)c(OC)c(OC)c2)cc1 [Compound 38]
- Ki [1]: 100 to 1000 nM

Structure (SMILES): COc1ccc(N/N=C2\C(=O)NN=C2c2ccccn2)cc1 [Compound 26]
- Ki [1]: 100 to 1000 nM

Structure (SMILES): COc1ccc(N/N=C2\C(=O)NN=C2c2cccnc2)cc1 [Compound 20]
- Ki: < 100 nM

Structure (SMILES): O=C1NN=C(c2ccncc2)C1=NNc1ccc(Cl)cc1 [Compound 24]
- Ki [1]: < 100 nM

Structure (SMILES): COc1ccc(C2=NNC(=O)C2=NNc2ccc(OC)c(N3CCOCC3)c2)cc1OC [Compound 123, 5-(3,4-Dimethoxy-phenyl)-4-[(4-methoxy-3-morpholin-4-yl-phenyl)-hydrazono]-2,4-dihydro-pyrazol-3-one]
- Ki [1]: < 100 nM

Structure (SMILES): COc1ccc(C2=NNC(=O)/C2=N\Nc2ccc(C#N)cc2)cc1 [Compound 57]
- Ki [1]: < 100 nM

Structure (SMILES): COc1ccc(N/N=C2\C(=O)NN=C2c2cccc(OC)c2)cc1 [Compound 50]
- Ki [1]: < 100 nM

Structure (SMILES): COc1cccc(C2=NNC(=O)C2=NNc2ccc(C(F)(F)F)cc2)c1 [Compound 65]
- Ki [1]: < 100 nM

Structure (SMILES): COc1ccc(C2=NNC(=O)C2=NNc2cccc(C(F)(F)F)c2)cc1 [Compound 66]
- Ki [1]: < 100 nM

Structure (SMILES): COc1cc(N2CCOCC2)ccc1NN=C1C(=O)NN=C1c1ccc(OC)c(OC)c1 [Compound 40]
- Ki [1]: 100 to 1000 nM

Structure (SMILES): COc1cccc(C2=NNC(=O)/C2=N\Nc2ccc(Cl)cc2)c1 [Compound 49]
- Ki [1]: < 100 nM

Structure (SMILES): COc1cc(C2=NNC(=O)C2=NNc2ccc(OC)c(Br)c2)ccc1O [Compound 225]
- Ki [1]: < 100 nM

Structure (SMILES): COc1ccc(C2=NNC(=O)C2=NNc2ccc(OC)c(-c3ccccc3)c2)cc1 [Compound 220]
- Ki [1]: < 100 nM

Structure (SMILES): COc1ccc(C2=NNC(=O)C2=NNc2ccc3c(c2)C(=O)c2ccccc2-3)cc1 [Compound 206]
- Ki [1]: < 100 nM

Structure (SMILES): COc1ccc(C2=NNC(=O)C2=NNc2ccc(OC)c(-c3cccc(N)c3)c2)cc1OC [Compound 105, 4-[(3′-Amino-6-methoxy-biphenyl-3-yl)-hydrazono]-5-(3,4-dimethoxy-phenyl)-2,4-dihydro-pyrazol-3-one]
- Ki [1]: < 100 nM

Structure (SMILES): COc1cccc(C2=NNC(=O)C2=NNc2ccc(Oc3ccccc3)cc2)c1 [Compound 87]
- Ki [1]: < 100 nM

Structure (SMILES): COc1cccc(C2=NNC(=O)C2=NNc2cccc(Oc3ccccc3)c2)c1 [Compound 90]
- Ki [1]: < 100 nM

Structure (SMILES): COc1ccc(NN=C2C(=O)NN=C2c2ccc3c(c2)OCO3)cc1 [Compound 48]
- Ki [1]: < 100 nM

Structure (SMILES): COc1cccc(C2=NNC(=O)C2=NNc2ccc([N+](=O)[O-])cc2)c1 [Compound 78]
- Ki [1]: < 100 nM

Structure (SMILES): COc1cccc(C2=NNC(=O)/C2=N\Nc2ccc(N(C)C)cc2)c1 [Compound 53]
- Ki [1]: < 100 nM

Structure (SMILES): COc1cc(C2=NNC(=O)C2=NNc2ccc(N3CCOCC3)cc2OC)ccc1O [Compound 113, 5-(4-Hydroxy-3-methoxy-phenyl)-4-[(2-methoxy-4-morpholin-4-yl-phenyl)-hydrazono]-2,4-dihydro-pyrazol-3-one]
- Ki [1]: 100 to 1000 nM

Structure (SMILES): COc1ccc(N/N=C2\C(=O)NN=C2c2ccncc2)cc1 [Compound 21]
- Ki [1]: < 100 nM

Structure (SMILES): COc1ccc(C2=NNC(=O)C2=NNc2ccc(-c3ccc(F)cc3)cc2)cc1OC [Compound 83]
- Ki [1]: < 100 nM

Structure (SMILES): CCN(CC)c1ccc(N/N=C2\C(=O)NN=C2c2ccc(OC)cc2)cc1 [Compound 36]
- Ki [1]: < 100 nM

Structure (SMILES): COc1ccc(C2=NNC(=O)C2=NNc2ccc(Oc3ccccc3)cc2)cc1 [Compound 85]
- Ki [1]: < 100 nM

Structure (SMILES): COc1ccc(C2=NNC(=O)C2=NNc2ccc(-c3ccccc3)cc2)cc1OC [Compound 80]
- Ki [1]: < 100 nM

Structure (SMILES): COc1cccc(C2=NNC(=O)C2=NNc2ccc(Br)cc2)c1 [Compound 56]
- Ki [1]: < 100 nM
